By EC50 is commonly meant the concentration needed to bring the measured effect to its halfway point. As a reminder, the IC50 is the concentration that inhibits the measured activity by half.

The record followed here is patent publication US20010041801A1, “Water soluble fullerenes with antiviral activity” (The Regents of the University of California, priority 1994, published 2001).

The subject of one series is HIV-1 HI 12.2. Kind of series: Susceptibility of pretherapy AZT-susceptible isolate in acutely infected PBMC. Format: cell-based. Particulars: Human immunodeficiency virus 1, PBMC, read-out: EC50 against pretherapy isolate. The source says:
The availability of AZT-resistant and -susceptible viruses allowed us to evaluate the compounds of this invention for their susceptibilities to these viruses in acutely infected PBMC in two experiments. […] In the same assay, the EC50 for TIBO [(+)-(5s)-4,5,6,7-tetrahydro-5methyl-6-(3-methyl-2-butenyl)imidazo(4,5,1-jk)(1,4)benzodiazepin-2(1 H)-thione] R82150 increased >500-fold (data not shown).

For the next series, the target named is HIV-1 RT (Human immunodeficiency virus type 1 group M subtype B, UniProt P04585). The series is described as follows: Inhibition of recombinant p66/51 HIV-1 RT, poly(rA)n.oligo(T)12-18 template-primer. Format: biochemical. Particulars: IC50 Polymerases: HIV-1 RT, cell-free; AZT-5′-triphosphate used for AZT. As for the experimental part:
The compound was also evaluated for its inhibitory effect on recombinant p66/51 HIV-1 RT by using poly(rA)n.oligo(T)12-18 as the template-primer as described in Schinazi, et al. (1992, supra). Compound 2c was active against this enzyme, with a median inhibitory concentration (1C50) of 4.6 μM. This value was of the same order of magnitude as that noted for the antiviral assays (TABLE 3). […] AZT-5′ triphosphate and phosphonoformate (PFA), used as positive controls, were effective and selective against HIV-1 RT.

The next series relates to HIV-1. The series is described as follows: HIV-1 p24 antigen assay in supernatants of acutely infected PBMC. Format: cell-based. Particulars: Human immunodeficiency virus 1; PBMC acutely infected with HIV-1. As for the experimental part: To determine whether the fullerene may bind tightly to inactivate the viral RT, we also measured levels of HIV-1 p24 in supernatants of treated and untreated cultures. Clarified supernatants were treated with Triton X-100 (Sigma Chemicals, St. Louis, Mo.) and tested for HIV-1 antigen by immunocapture with a commercial kit (Abbott, North Chicago, Ill.).

In a further series the target is DNA polymerase α (Homo sapiens, UniProt P09884). Kind of series: Inhibition of cellular DNA polymerase α, cell-free. Format: biochemical. Particulars: AZT-5′-triphosphate used for AZT, read-out: IC50 Polymerases: DNA Polymerase α.
In the next series the test system is HIV-1LAI. Kind of series: Virus inactivation assay with cell-free virus. Format: cell-based. Particulars: 5 to 25 μM; cell-free virus incubated 2 hours at 37° C.; RT assay day 6. The protocol: Cell culture evaluation techniques well known in the art can also be used to determine the antiviral and antivirucidal properties of the compounds of this invention. For instance about 200 50% tissue culture infective doses of the virus to be tested and 2 ml of the compound to be tested are incubated for 2 hours at 37° C. After incubation, a growth medium is added to each tube and the tube is centrifuged at about 40,000 rpm for 30 minutes at 4° C. The supernatant is removed and the virus pellet is resuspended in fresh medium. The virions are added to human PBMC that has been stimulated for 2 days with phytohemagglutinin in 25 cm^2 flasks in a total of 10 ml of growth medium. After about six days, residual virus in the supernatant are quantitated by an RT assay such as that described by R. F. Schinazi, et al., Antimicrob. Agents Chemother., 36:2423-2431, 1992, or in Current Protocols in Molecular Biology, Ed. by F. M. Ausubel, Current Protocols, Vol. 1, §9.13.3 and in Example 8, Table 2 below.
To confirm these findings, inactivation studies with HIV-1LAI were performed. […] On day 6, residual virus in the supernatant was quantitated by an RT assay, as described previously (R. F. Schinazi, et al., Antimicrob. Agents Chemother., 36:2423-2431, 1992). […]

Another series in a line: Cytotoxicity in H9 cells. Format: cell-based, human. Particulars: human, H9 cells; cell counts on day 6.
The test system of the next series is H9 cells. Kind of series: Cytotoxicity in H9 cells. Particulars: b68: up to 100 μM. Format: cell-based, human.
A further series has as its system Vero cells. The series is described as follows: Cytotoxicity in Vero cells. Format: cell-based. Particulars: b68: up to 100 μM.
The nature of series [1]: Cytotoxicity in Vero cells. Format: cell-based. Particulars: African green monkey, Vero cells; day 3.
The test system of a further series is HIV-1III. Kind of series: Antiviral activity in chronically infected H9 cells, virus RT level. Format: cell-based. Particulars: Human immunodeficiency virus 1, H9, 144 h, read-out: Antiviral Activity (EC50) in H9 cells infected with HIV-1III. As for the experimental part:
Compound 2c was evaluated for antiviral activity in cells acutely and chronically infected with human immunodeficiency virus (HIV). Reverse transcriptase (RT) levels associated with virus were determined with virus concentrated from cell culture supernatants by high-speed centrifugation to reduce the chances of drug carryover in the enzyme assay using the method described in R. F. Schinazi, et al., Antimicrob. Agents Chemother., 36:2423-2431, 1992.

Molecules are shown by their SMILES. Where “and” joins values, the source holds several entries; their conditions need not be identical. Equal entries are not always repeated. Entries after “also recorded” stand apart in the source; their conditions may differ.

DNA polymerase α, sequence (P09884 whole entry): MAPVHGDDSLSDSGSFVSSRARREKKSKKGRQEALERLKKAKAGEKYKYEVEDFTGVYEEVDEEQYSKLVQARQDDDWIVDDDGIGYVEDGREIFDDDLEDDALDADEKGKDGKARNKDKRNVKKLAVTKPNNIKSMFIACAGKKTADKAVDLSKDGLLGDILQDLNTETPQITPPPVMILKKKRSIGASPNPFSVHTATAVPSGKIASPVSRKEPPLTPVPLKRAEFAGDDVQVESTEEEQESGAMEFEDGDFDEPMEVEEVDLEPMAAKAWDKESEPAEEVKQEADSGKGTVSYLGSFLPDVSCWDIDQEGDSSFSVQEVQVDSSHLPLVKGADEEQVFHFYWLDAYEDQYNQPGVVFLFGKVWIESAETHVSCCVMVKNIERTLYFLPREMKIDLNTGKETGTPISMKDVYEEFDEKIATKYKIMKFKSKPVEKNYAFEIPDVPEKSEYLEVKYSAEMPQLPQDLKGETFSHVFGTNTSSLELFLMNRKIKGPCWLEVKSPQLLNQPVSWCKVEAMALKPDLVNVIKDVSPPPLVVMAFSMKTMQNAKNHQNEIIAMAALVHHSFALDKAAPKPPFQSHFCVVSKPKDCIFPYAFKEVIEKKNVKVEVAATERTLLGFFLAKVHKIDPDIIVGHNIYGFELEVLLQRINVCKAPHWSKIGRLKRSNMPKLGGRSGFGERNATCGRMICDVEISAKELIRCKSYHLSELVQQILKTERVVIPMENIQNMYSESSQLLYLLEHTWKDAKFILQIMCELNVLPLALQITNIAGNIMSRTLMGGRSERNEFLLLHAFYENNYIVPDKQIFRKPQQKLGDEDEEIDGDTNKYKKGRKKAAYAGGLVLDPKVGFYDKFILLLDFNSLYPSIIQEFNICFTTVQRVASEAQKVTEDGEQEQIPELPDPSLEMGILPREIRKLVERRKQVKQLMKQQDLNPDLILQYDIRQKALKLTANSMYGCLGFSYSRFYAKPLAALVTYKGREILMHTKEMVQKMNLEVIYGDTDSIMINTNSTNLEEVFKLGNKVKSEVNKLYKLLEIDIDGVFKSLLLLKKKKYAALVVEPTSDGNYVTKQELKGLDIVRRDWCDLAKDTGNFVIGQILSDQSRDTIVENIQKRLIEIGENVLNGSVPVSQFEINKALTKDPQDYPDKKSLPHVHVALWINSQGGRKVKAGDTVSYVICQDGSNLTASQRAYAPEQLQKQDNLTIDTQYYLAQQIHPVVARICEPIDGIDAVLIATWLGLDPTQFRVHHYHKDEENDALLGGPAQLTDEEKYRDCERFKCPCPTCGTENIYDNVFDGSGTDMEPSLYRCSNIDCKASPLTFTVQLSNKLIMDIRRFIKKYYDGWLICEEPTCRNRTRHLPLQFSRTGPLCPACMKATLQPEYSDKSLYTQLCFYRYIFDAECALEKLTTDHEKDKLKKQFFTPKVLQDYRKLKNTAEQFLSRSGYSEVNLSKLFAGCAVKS
DNA polymerase α, sequence (Q14181 whole entry partner): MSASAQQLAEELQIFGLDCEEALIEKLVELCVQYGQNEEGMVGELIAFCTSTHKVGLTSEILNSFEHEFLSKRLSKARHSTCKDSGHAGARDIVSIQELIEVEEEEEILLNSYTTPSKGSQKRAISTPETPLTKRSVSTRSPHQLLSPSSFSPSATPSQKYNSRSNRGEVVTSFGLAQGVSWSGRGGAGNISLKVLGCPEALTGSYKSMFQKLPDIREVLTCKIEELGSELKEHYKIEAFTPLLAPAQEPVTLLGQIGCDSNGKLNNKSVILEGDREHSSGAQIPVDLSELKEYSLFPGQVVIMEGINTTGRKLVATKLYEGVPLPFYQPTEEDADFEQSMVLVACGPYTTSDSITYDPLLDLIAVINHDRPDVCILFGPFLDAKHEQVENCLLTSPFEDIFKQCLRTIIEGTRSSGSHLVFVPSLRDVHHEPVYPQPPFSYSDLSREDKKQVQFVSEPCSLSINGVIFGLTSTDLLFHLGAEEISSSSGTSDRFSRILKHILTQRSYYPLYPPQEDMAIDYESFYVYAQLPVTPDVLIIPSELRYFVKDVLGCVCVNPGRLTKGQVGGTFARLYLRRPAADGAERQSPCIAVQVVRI
DNA polymerase α, sequence (P49642 whole entry partner): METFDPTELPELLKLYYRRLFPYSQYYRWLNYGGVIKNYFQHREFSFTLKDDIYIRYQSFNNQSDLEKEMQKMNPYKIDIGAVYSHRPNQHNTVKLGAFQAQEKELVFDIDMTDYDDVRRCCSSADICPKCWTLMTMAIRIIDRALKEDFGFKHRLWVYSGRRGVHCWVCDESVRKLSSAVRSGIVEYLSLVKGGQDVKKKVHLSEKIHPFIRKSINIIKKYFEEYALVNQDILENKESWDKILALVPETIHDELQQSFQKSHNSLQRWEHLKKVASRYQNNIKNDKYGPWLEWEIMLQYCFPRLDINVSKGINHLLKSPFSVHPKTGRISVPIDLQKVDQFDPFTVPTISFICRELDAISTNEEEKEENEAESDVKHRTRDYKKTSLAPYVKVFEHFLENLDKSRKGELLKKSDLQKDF
DNA polymerase α, sequence (P49643 whole entry partner): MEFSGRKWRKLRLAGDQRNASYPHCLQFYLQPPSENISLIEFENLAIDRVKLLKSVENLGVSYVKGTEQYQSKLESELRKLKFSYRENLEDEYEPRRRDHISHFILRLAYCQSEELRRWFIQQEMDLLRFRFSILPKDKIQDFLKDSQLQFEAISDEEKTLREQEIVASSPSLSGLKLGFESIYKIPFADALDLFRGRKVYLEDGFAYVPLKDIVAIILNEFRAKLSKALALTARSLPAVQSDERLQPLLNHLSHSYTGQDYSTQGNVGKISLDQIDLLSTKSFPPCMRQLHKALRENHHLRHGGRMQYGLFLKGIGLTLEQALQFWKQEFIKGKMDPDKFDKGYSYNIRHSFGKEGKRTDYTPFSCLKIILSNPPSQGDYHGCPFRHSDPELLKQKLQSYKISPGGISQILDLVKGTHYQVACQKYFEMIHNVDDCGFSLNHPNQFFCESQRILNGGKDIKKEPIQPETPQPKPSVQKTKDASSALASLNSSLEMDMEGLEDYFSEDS

For the compound `O=C(O)CCC(=O)NCCc1ccc(C2(c3ccc(CCNC(=O)CCC(=O)O)cc3)C34c5c6c7c8c9c%10c(c%11c%12c3c3c5c5c%13c6c6c7c7c9c9c%14c%10c%10c%11c%11c%12c%12c3c3c5c5c%13c%13c6c6c7c9c7c9c%14c%10c%10c%11c%11c%12c3c3c5c5c%13c6c7c6c9c%10c%11c3c56)C824)cc1` [Compound 2c, bis(monosuccinimide) derivative of p,p′-bis(2-aminoethyl)diphenyl-C60], the EC50 in the series with HIV-1 HI 12.2 is 2 to 8 µM; in the series with HIV-1 it was 50 µM; with HIV-1III, 10.8 ± 8.2 µM. In addition, the IC50 was 4.6 µM and ~5 µM on HIV-1 RT; 4.9 µM and ~5 µM at DNA polymerase α. In addition, the “reduction of virus infectivity relative to untreated control” value in the series with HIV-1LAI is “more than 95%”. In “Cytotoxicity in H9 cells”, the IC50 at 6 days was > 100 µM. In the series with H9 cells, the “cytotoxicity in H9 cells” value is given as “No cytotoxicity; also recorded: noncytotoxic”. Also, in the series on Vero cells, the “cytotoxicity in Vero cells” value is “No cytotoxicity; also recorded: noncytotoxic”. Besides, the IC50 at 3 days in series [1] was > 100 µM.
